# Test results published in patent US12594276B2, “Inhibitors of human immunodeficiency virus replication” (ViiV Healthcare UK (No.5) Limited, priority 2024, dated 2026).
# Read-outs that look alike come from different tables or passages of the source.
# Columns and labels:
# [1] = tested on: recombinant NL4-3 virus (nef section replaced with Renilla luciferase gene) in MT-2 cells; assay: HIV cell culture assay (antiviral activity, luciferase readout); format: cell-based; conditions: Renilla, NL43, MT-2 cells infected for 4-5 days with recombinant NL4-3 Renilla luciferase virus
# Procedure, shortened: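 Antiviral EC50 derived from luciferase signal using the exponential median effect equation. Infection of MT-2 cells ran 4-5 days alongside serial dilutions of compound, with virus generated by proviral clone transfection of 293T cells.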
# [2] = Compound cytotoxicity, XTT-based colorimetric assay; format: cell-based; conditions: human
# Procedure, shortened: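 Uninfected MT2 cells, antiviral-assay protocol without virus; XTT colorimetric readout day 4; CC50 reported.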
# [3] = uninfected MT2 cells, day 4, XTT, read-out: CC50
SMILES,EC50 [1] [nM],"CC50 at 4 days [2, 3] [nM]",CC50 at 4 days [2] [nM]
"Cc1cc(C2(F)CCC(F)(F)CC2)nc2nc([C@H](Cc3cc(F)cc(F)c3)NC(=O)Cn3nc(C4CC4)c4c3C[C@@H]3C[C@H]43)n(-c3ccc(Cl)c4c(NS(C)(=O)=O)nn(C[C@@H](C)N5C[C@H](F)C[C@H](F)C5)c34)c(=O)c12 (relative stereo) [Example 702, N-[(1S)-1-[(3P)-3-{4-chloro-1-[(2R)-2-[(3R,5S)-3,5-difluoropiperidin-1-yl]propyl]-3-methanesulfonamido-1H-indazol-7-yl}-5-methyl-4-oxo-7-(1,4,4-trifluorocyclohexyl)-3H,4H-pyrido[2,3-d]pyrimidin-2-yl]-2-(3,5-difluorophenyl)ethyl]-2-[(2R*,4R*)-9-cyclopropyl-7,8-diazatricyclo[4.3.0.0^2,^4]nona-1(6),8-dien-7-yl]acetamide]",0.016,> 20,
"COCCCn1nc(NS(C)(=O)=O)c2c(Cl)ccc(-n3c([C@H](Cc4cc(F)cc(F)c4)NC(=O)Cn4nc(C(F)F)c5c4C(F)(F)[C@@H]4C[C@H]54)nc4nc(C5CCC(F)(F)CC5)cc(NCCC(C)(C)OC)c4c3=O)c21 (atropisomer, axis not shown; (P)) [Example 565, N-[(1S)-1-[(3P)-3-[4-chloro-3-methanesulfonamido-1-(3-methoxypropyl)-1H-indazol-7-yl]-7-(4,4-difluorocyclohexyl)-5-[(3-methoxy-3-methylbutyl)amino]-4-oxo-3H,4H-pyrido[2,3-d]pyrimidin-2-yl]-2-(3,5-difluorophenyl)ethyl]-2-[(2S,4R)-9-(difluoromethyl)-5,5-difluoro-7,8-diazatricyclo[4.3.0.0^2,^4]nona-1(6),8-dien-7-yl]acetamide]",0.011,> 20,
"CS(=O)(=O)Nc1nn(CCN2CCC(F)CC2)c2c(-n3c([C@H](Cc4cc(F)cc(F)c4)NC(=O)Cn4nc(C5CC5)c5c4C[C@@H]4C[C@H]54)nc4nc(C5CCC(F)(F)CC5)cc(C(F)F)c4c3=O)ccc(Cl)c12 (atropisomer, axis not shown; (P)) [Example 371, N-[(1S)-1-[(3P)-3-{4-chloro-1-[2-(4-fluoropiperidin-1-yl)ethyl]-3-methanesulfonamido-1H-indazol-7-yl}-7-(4,4-difluorocyclohexyl)-5-(difluoromethyl)-4-oxo-3H,4H-pyrido[2,3-d]pyrimidin-2-yl]-2-(3,5-difluorophenyl)ethyl]-2-[(2S,4S)-9-cyclopropyl-7,8-diazatricyclo[4.3.0.0^2,^4]nona-1(6),8-dien-7-yl]acetamide]",0.009,> 20,
"Cc1cc(C2(F)CCC(F)(F)CC2)nc2nc([C@H](Cc3cc(F)cc(F)c3)NC(=O)Cn3nc(C4CC4)c4c3C[C@@H]3C[C@H]43)n(-c3ccc(Cl)c4c(NS(C)(=O)=O)nn(C[C@@H](C)N5C[C@@H](C)O[C@@H](C)C5)c34)c(=O)c12 (relative stereo) [Example 723, N-[(1S)-1-[(3P)-3-{4-chloro-1-[(2R)-2-[(2R,6S)-2,6-dimethylmorpholin-4-yl]propyl]-3-methanesulfonamido-1H-indazol-7-yl}-5-methyl-4-oxo-7-(1,4,4-trifluorocyclohexyl)-3H,4H-pyrido[2,3-d]pyrimidin-2-yl]-2-(3,5-difluorophenyl)ethyl]-2-[(2R*,4R*)-9-cyclopropyl-7,8-diazatricyclo[4.3.0.0^2,^4]nona-1(6),8-dien-7-yl]acetamide]",0.012,> 20,
"Cc1cc(C2CCC(F)(F)CC2)nc2nc([C@H](Cc3cc(F)cc(F)c3)NC(=O)Cn3nc(C4CC4)c4c3C[C@@H]3C[C@H]43)n(-c3ccc(Cl)c4c(NS(C)(=O)=O)nn(CCN5CCC(C)(F)C5)c34)c(=O)c12 (stereo partly drawn) [Example 280, N-[(1S)-1-[(3P)-3-{4-chloro-1-[2-(3-fluoro-3-methylpyrrolidin-1-yl)ethyl]-3-methanesulfonamido-1H-indazol-7-yl}-7-(4,4-difluorocyclohexyl)-5-methyl-4-oxo-3H,4H-pyrido[2,3-d]pyrimidin-2-yl]-2-(3,5-difluorophenyl)ethyl]-2-[(2S,4S)-9-cyclopropyl-7,8-diazatricyclo[4.3.0.0^2,^4]nona-1(6),8-dien-7-yl]acetamide]",0.006,> 50,
"COCCNc1cc(C2CCC(F)(F)CC2)nc2nc([C@H](Cc3cc(F)cc(F)c3)NC(=O)Cn3nc(C(F)F)c4c3C(F)(F)[C@@H]3C[C@H]43)n(-c3ccc(Cl)c4c(NS(C)(=O)=O)nn(CCN5CCC(F)CC5)c34)c(=O)c12 (atropisomer, axis not shown; (P)) [Example 415, N-[(1S)-1-[(3P)-3-{4-chloro-1-[2-(4-fluoropiperidin-1-yl)ethyl]-3-methanesulfonamido-1H-indazol-7-yl}-7-(4,4-difluorocyclohexyl)-5-[(2-methoxyethyl)amino]-4-oxo-3H,4H-pyrido[2,3-d]pyrimidin-2-yl]-2-(3,5-difluorophenyl)ethyl]-2-[(2S,4R)-9-(difluoromethyl)-5,5-difluoro-7,8-diazatricyclo[4.3.0.0^2,^4]nona-1(6),8-dien-7-yl]acetamide]",0.013,> 20,
"Cc1cc(C2(F)CCC(F)(F)CC2)nc2nc([C@H](Cc3cc(F)cc(F)c3)NC(=O)Cn3nc(C(F)F)c4c3C(F)(F)[C@@H]3C[C@H]43)n(-c3ccc(Cl)c4c(NS(C)(=O)=O)nn([C@H](C)CN5C[C@H](F)C[C@H](F)C5)c34)c(=O)c12 (atropisomer, axis not shown; (P)) [Example 711, N-[(1S)-1-[(3P)-3-{4-chloro-1-[(2R)-1-[(3R,5S)-3,5-difluoropiperidin-1-yl]propan-2-yl]-3-methanesulfonamido-1H-indazol-7-yl}-5-methyl-4-oxo-7-(1,4,4-trifluorocyclohexyl)-3H,4H-pyrido[2,3-d]pyrimidin-2-yl]-2-(3,5-difluorophenyl)ethyl]-2-[(2S,4R)-9-(difluoromethyl)-5,5-difluoro-7,8-diazatricyclo[4.3.0.0^2,^4]nona-1(6),8-dien-7-yl]acetamide]",0.026,> 20,
"Cc1cc(C2(F)CCC(F)(F)CC2)nc2nc([C@H](Cc3cc(F)cc(F)c3)NC(=O)Cn3nc(C4CC4)c4c3C[C@@H]3C[C@H]43)n(-c3ccc(Cl)c4c(NS(C)(=O)=O)nn(CCN5[C@@H]6CC[C@H]5COC6)c34)c(=O)c12 (atropisomer, axis not shown; (P)) [Example 593, N-[(1S)-1-[(3P)-3-(4-chloro-3-methanesulfonamido-1-{2-[(1R,5S)-3-oxa-8-azabicyclo[3.2.1]octan-8-yl]ethyl}-1H-indazol-7-yl)-5-methyl-4-oxo-7-(1,4,4-trifluorocyclohexyl)-3H,4H-pyrido[2,3-d]pyrimidin-2-yl]-2-(3,5-difluorophenyl)ethyl]-2-[(2S,4S)-9-cyclopropyl-7,8-diazatricyclo[4.3.0.0^2,^4]nona-1(6),8-dien-7-yl]acetamide]",0.017,,> 20
